Assay results as given in US8901168B2 (priority 2007, dated 2014).

Columns and labels:
[1] = mice; for total vitamin E accumulation in adipose tissues: compared to unsupplemented control mice; for δ-T3 concentration in adipose tissue: compared to the rest of the groups
[2] = tested on: splenocytes; design: species or system BALB/c mice; conditions: mouse, in vivo
[3] = tested on: IFN-γ; design: species or system BALB/c mice; conditions: mouse, in vivo
[4] = 1 mg oral gavage daily for 56 days

Row | SMILES | total vitamin E accumulation in adipose tissues [1, 4] | α-T (tocopherol) concentration in adipose tissue ([1]; 56 days, compared to the rest of the animal groups) | γ-T3 concentration in adipose tissue ([1]; 56 days, compared to the rest of the animals) | δ-T3 concentration in adipose tissue ([1]; 56 days) | splenocyte proliferative response to Con A [2] | splenocyte proliferative response to TT [2] | total vitamin E levels in adipose tissues, ranking of groups ([1]; 1 mg oral gavage daily for 56 days, between supplemented groups) | IFN-γ production following Con A stimulation compared to α-T treated mice [3] | splenocyte proliferation, comparison between vitamin E treated groups [2]
1 | Cc1c(C)c2c(c(C)c1O)CC[C@@](C)(CCC[C@H](C)CCC[C@H](C)CCCC(C)C)O2 [α-T, α-tocopherol] | significant (P<0.05) levels of total vitamin E accumulation | significantly (P<0.05) high concentrations of tocopherol | did not have any detectable amounts | did not have any detectable amounts | significantly (P<0.05) greater proliferative response | significantly (P<0.05) greater proliferative response | – | – | –
2 | CC(C)=CCC/C(C)=C/CC/C(C)=C/CC[C@]1(C)CCc2cc(O)cc(C)c2O1 [δ-T3, δ-tocotrienol] | significant (P<0.05) levels of total vitamin E accumulation | – | – | highest in the δ-T3 fed animals and the levels were highly significant (P<0.01) | significantly (P<0.05) greater proliferative response | significantly (P<0.05) greater proliferative response | highest | significant (P<0.05) increase | slightly increased
